In PubChem BioAssay AID248 (DTP/NCI, 2004):
Where “and” joins values, the source holds several entries; their conditions need not be identical. Identical values can stand only once. Toxic doses and inconclusive results are not listed.

Test system: L1210 leukemia ip in BDF1 mice, survival T/C
Test: NCI In Vivo Anticancer Drug Screen. Data for tumor model L1210 Leukemia (intraperitoneal) in B6D2F1 (BDF1) mice
Conditions: endpoint: mean survival time, higher = longer survival
In short: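 Antitumor effect is assessed in tumor-bearing animals. Survival in the compound arm is compared with a vehicle-dosed control arm and expressed as their quotient.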

[1] = dose: 100.0 mg/kg/injection, schedule: Q01DX001 (ip), vehicle: saline
[2] = dose: 50.0 mg/kg/injection, schedule: Q01DX009 (ip), vehicle: Klucel (hydroxypropylcellulose) (HPC)
[3] = dose: 100.0 mg/kg/injection, schedule: Q04DX003 (ip), vehicle: Klucel (hydroxypropylcellulose) (HPC)
[4] = dose: 50.0 mg/kg/injection, schedule: Q04DX003 (ip), vehicle: saline with Tween-80
[5] = dose: 100.0 mg/kg/injection, schedule: Q01DX009 (ip), vehicle: saline with Tween-80
[6] = dose: 100.0 mg/kg/injection, schedule: Q04DX003 (ip), vehicle: saline with Tween-80
[7] = dose: 200.0 mg/kg/injection, schedule: Q01DX009 (ip), vehicle: saline with Tween-80
[8] = dose: 200.0 mg/kg/injection, schedule: Q04DX003 (ip), vehicle: saline with Tween-80
[9] = dose: 100.0 mg/kg/injection, schedule: Q04DX002 (ip), vehicle: saline with Tween-80
[10] = dose: 200.0 mg/kg/injection, schedule: Q04DX002 (ip), vehicle: saline with Tween-80
[11] = dose: 400.0 mg/kg/injection, schedule: Q04DX002 (ip), vehicle: saline with Tween-80

CC[n+]1cccc(NC(=O)c2ccc(NC(=O)c3ccc(C(=O)Nc4ccc(C(=O)Nc5ccc[n+](CC)c5)c(N)c4)cc3)cc2N)c1
T/C (dose: 2.5 mg/kg/injection, schedule: Q01DX015 (ip), vehicle: other): 187 % of control
T/C (dose: 5.0 mg/kg/injection, schedule: Q01DX015 (ip), vehicle: other): 264 % of control
T/C (dose: 8.0 mg/kg/injection, schedule: Q01DX015 (ip), vehicle: other): 246 % of control
T/C (dose: 10.0 mg/kg/injection, schedule: Q01DX015 (ip), vehicle: other): 150 % of control
T/C (dose: 22.0 mg/kg/injection, schedule: Q01DX001 (ip), vehicle: other): 156 % of control
T/C (dose: 22.0 mg/kg/injection, schedule: Q01DX015 (ip), vehicle: other): 114 % of control
T/C (dose: 25.0 mg/kg/injection, schedule: Q01DX001 (ip), vehicle: other): 174 % of control
T/C (dose: 33.0 mg/kg/injection, schedule: Q01DX001 (ip), vehicle: other): 168 % of control
T/C (dose: 37.0 mg/kg/injection, schedule: Q01DX015 (ip), vehicle: other): 90 % of control
T/C (dose: 50.0 mg/kg/injection, schedule: Q01DX001 (ip), vehicle: other): 203 % of control
T/C (dose: 55.0 mg/kg/injection, schedule: Q01DX001 (ip), vehicle: other): 219 % of control
T/C (dose: 75.0 mg/kg/injection, schedule: Q01DX001 (ip), vehicle: other): 212 % of control

CCCOC(=O)C(OC(=O)c1ccccc1)C(OC(=O)c1ccccc1)C(=O)OCCC (stereo not drawn)
T/C [1]: 104 % of control
T/C (dose: 200.0 mg/kg/injection, schedule: Q01DX001 (ip), vehicle: saline): 96 % of control
T/C (dose: 400.0 mg/kg/injection, schedule: Q01DX001 (ip), vehicle: saline): 94 % of control

O=S(=O)(CCl)Nc1ccccn1
T/C (dose: 100.0 mg/kg/injection, schedule: Q01DX009 (ip), vehicle: other): 96 % of control
T/C (dose: 100.0 mg/kg/injection, schedule: Q04DX003 (ip), vehicle: other): 106 % of control
T/C (dose: 200.0 mg/kg/injection, schedule: Q01DX009 (ip), vehicle: other): 103 % of control
T/C (dose: 200.0 mg/kg/injection, schedule: Q04DX003 (ip), vehicle: other): 108 % of control
T/C (dose: 400.0 mg/kg/injection, schedule: Q01DX009 (ip), vehicle: other): 102 % of control
T/C (dose: 400.0 mg/kg/injection, schedule: Q04DX003 (ip), vehicle: other): 100 % of control

NCC1COc2ccccc2N1 (stereo not drawn)
T/C (dose: 100.0 mg/kg/injection, schedule: Q04DX002 (ip), vehicle: other): 108 % of control
T/C (dose: 200.0 mg/kg/injection, schedule: Q04DX002 (ip), vehicle: other): 101 % of control
T/C (dose: 400.0 mg/kg/injection, schedule: Q04DX002 (ip), vehicle: other): 111 % of control

COc1ccc(C2NC(=O)N3C(c4ccc(OC)c(OC)c4)NC(=O)N23)cc1OC (stereo not drawn)
T/C (dose: 100.0 mg/kg/injection, schedule: Q04DX002 (ip), vehicle: gum acacia): 98 % of control
T/C (dose: 200.0 mg/kg/injection, schedule: Q04DX002 (ip), vehicle: gum acacia): 102 % of control
T/C (dose: 400.0 mg/kg/injection, schedule: Q04DX002 (ip), vehicle: gum acacia): 105 % of control

CC(=O)Oc1ccc(C)cc1
T/C [2]: 94 % of control
T/C (dose: 100.0 mg/kg/injection, schedule: Q01DX009 (ip), vehicle: Klucel (hydroxypropylcellulose) (HPC)): 110 % of control
T/C [3]: 100 % of control
T/C (dose: 200.0 mg/kg/injection, schedule: Q01DX009 (ip), vehicle: Klucel (hydroxypropylcellulose) (HPC)): 107 % of control
T/C (dose: 200.0 mg/kg/injection, schedule: Q04DX003 (ip), vehicle: Klucel (hydroxypropylcellulose) (HPC)): 104 % of control

Cc1cc(NC(=O)c2ccccc2)c(Cl)cc1N
T/C (dose: 50.0 mg/kg/injection, schedule: Q01DX009 (ip), vehicle: saline with Tween-80): 105 % of control
T/C [4]: 94 % of control
T/C [5]: 98 % of control
T/C [6]: 98 % of control
T/C [7]: 93 % of control
T/C [8]: 93 % of control

CCOP(=O)(Nc1ccc2c(c1)/C(=N/NC(N)=S)c1ccccc1-2)OCC
T/C (dose: 50.0 mg/kg/injection, schedule: Q01DX001 (ip), vehicle: carboxymethylcellulose (CMC)): 100 % of control
T/C (dose: 100.0 mg/kg/injection, schedule: Q01DX001 (ip), vehicle: carboxymethylcellulose (CMC)): 94 % of control
T/C (dose: 200.0 mg/kg/injection, schedule: Q01DX001 (ip), vehicle: carboxymethylcellulose (CMC)): 96 % of control
T/C (dose: 400.0 mg/kg/injection, schedule: Q01DX001 (ip), vehicle: carboxymethylcellulose (CMC)): 89 % of control

COc1ccc(C(=O)NC(=O)Nc2ccccc2)cc1
T/C (dose: 15.0 mg/kg/injection, schedule: Q01DX001 (ip), vehicle: saline): 97 % of control
T/C (dose: 30.0 mg/kg/injection, schedule: Q01DX001 (ip), vehicle: saline): 91 % of control
T/C (dose: 60.0 mg/kg/injection, schedule: Q01DX001 (ip), vehicle: saline): 92 % of control

CC(=O)C(C#N)c1ccccc1 (stereo not drawn)
T/C (dose: 25.0 mg/kg/injection, schedule: Q01DX009 (ip), vehicle: Klucel (hydroxypropylcellulose) (HPC)): 98 % of control
T/C (dose: 25.0 mg/kg/injection, schedule: Q04DX003 (ip), vehicle: Klucel (hydroxypropylcellulose) (HPC)): 100 % of control
T/C [2]: 96 % of control
T/C (dose: 50.0 mg/kg/injection, schedule: Q04DX003 (ip), vehicle: Klucel (hydroxypropylcellulose) (HPC)): 100 % of control
T/C [3]: 97 % of control

CC(=O)C(C(C)=O)C(=O)c1ccccc1
T/C (dose: 222.0 mg/kg/injection, schedule: Q01DX Z (ip), vehicle: saline): 100 % of control
T/C (dose: 333.0 mg/kg/injection, schedule: Q01DX Z (ip), vehicle: saline): 90 % of control
T/C (dose: 500.0 mg/kg/injection, schedule: Q01DX Z (ip), vehicle: saline): 103 % of control

O=C(O)c1cc(C(=O)O)c(C(=O)O)cc1C(=O)O (tested in a mixture with another compound)
T/C (dose: 5.0 mg/kg/injection, schedule: Q01DX001 (ip), vehicle: saline): 107 % of control
T/C (dose: 10.0 mg/kg/injection, schedule: Q01DX001 (ip), vehicle: saline): 103 % of control
T/C (dose: 20.0 mg/kg/injection, schedule: Q01DX001 (ip), vehicle: saline): 98 % of control
T/C (dose: 40.0 mg/kg/injection, schedule: Q01DX001 (ip), vehicle: saline): 104 % of control
T/C (dose: 80.0 mg/kg/injection, schedule: Q01DX001 (ip), vehicle: saline): 96 % of control
T/C [1]: 98 % of control

CCc1cccc(CC)c1NC(=O)Nc1cc(Cl)ccc1C
T/C (dose: 25.0 mg/kg/injection, schedule: Q04DX003 (ip), vehicle: saline with Tween-80): 94 % of control
T/C [4]: 105 % of control and 86 % of control
T/C (dose: 100.0 mg/kg/injection, schedule: Q01DX001 (ip), vehicle: saline with Tween-80): 105 % of control
T/C [5]: 97 % of control and 111 % of control
T/C [9]: 95 % of control and 103 % of control
T/C [6]: 87 % of control and 91 % of control
T/C (dose: 200.0 mg/kg/injection, schedule: Q01DX001 (ip), vehicle: saline with Tween-80): 90 % of control
T/C [7]: 97 % of control and 113 % of control
T/C [10]: 103 % of control
T/C [8]: 91 % of control
T/C (dose: 400.0 mg/kg/injection, schedule: Q01DX001 (ip), vehicle: saline with Tween-80): 89 % of control
T/C (dose: 400.0 mg/kg/injection, schedule: Q01DX009 (ip), vehicle: saline with Tween-80): 94 % of control and 97 % of control
T/C [11]: 98 % of control and 89 % of control
T/C (dose: 400.0 mg/kg/injection, schedule: Q04DX003 (ip), vehicle: saline with Tween-80): 88 % of control

Clc1ccc(C(c2ccc(Cl)cc2)N2CCNCC2)cc1
T/C (dose: 25.0 mg/kg/injection, schedule: Q01DX009 (ip), vehicle: saline with Tween-80): 98 % of control

CCc1[nH]c(=O)nc2[nH]c3ccccc3c12
T/C (dose: 100.0 mg/kg/injection, schedule: Q04DX002 (ip), vehicle: Klucel (hydroxypropylcellulose) (HPC)): 90 % of control
T/C (dose: 200.0 mg/kg/injection, schedule: Q04DX002 (ip), vehicle: Klucel (hydroxypropylcellulose) (HPC)): 93 % of control
T/C (dose: 400.0 mg/kg/injection, schedule: Q04DX002 (ip), vehicle: Klucel (hydroxypropylcellulose) (HPC)): 97 % of control

COC(=O)C1=C(C(=O)OC)[N+](C)(C)N=C1[O-]
T/C (dose: 25.0 mg/kg/injection, schedule: Q04DX003 (ip), vehicle: saline): 110 % of control
T/C (dose: 50.0 mg/kg/injection, schedule: Q04DX003 (ip), vehicle: saline): 104 % of control
T/C (dose: 100.0 mg/kg/injection, schedule: Q04DX003 (ip), vehicle: saline): 95 % of control and 101 % of control

O=C(O)c1cc2c(cc1[N+](=O)[O-])OCO2
T/C [9]: 104 % of control
T/C [10]: 92 % of control
T/C [11]: 90 % of control
